Measured values as given in patent publication US10344261B2, “Immunomodulatory conjugates” (ASCEND BIOPHARMACEUTICALS LTD, priority 2011, dated 2019).
Read-outs that look alike come from different tables or passages of the source.

B1: >1000 kDa oxidized mannan-MART-1: recombinant MART-1 protein linked to >1000 kDa oxidized mannan (conjugate, UniProt Q16655 1-118, looked up)
Melanoma antigen recognized …: MPREDAHFIYGYPKKGHGHSYTTAEEAAGIGILTVILGVLLLIGCWYCRRRNGYRALMDKSLHVGTQCALTRRCPQEGFDHRDSKVSLQEKNCEPVVPNAPPAYEKLSAEQSPPPYSP
modifications: conjugated to >1000 kDa oxidized mannan
notes: recombinant MART-1 protein linked to >1000 kDa oxidized mannan

Key:
PBMC = assay: Cytokine release assay to measure IL-6 from PBMC (ELISA); format: cell-based, human; conditions: for stimulation of IL-6 release by PBMC (in words): 6 and 24 hours; for EC50: Homo sapiens
Protocol: Fresh blood was collected from healthy volunteers and stored in Heparin Sodium tubes. 15 mL of blood was subsequently transferred to a 50 ml centrifugal tube and gently mixed with equal volume of DPBS. 10 ml Ficoll was slowly underlayed using pipette. The tube was centrifuged for 30 minutes at 800 g at RT without break. The buffy coat (containing PBMC) was aspirated at the interface between serum and Ficoll. The PBMC were washed with sufficient DPBS and centrifuged at 900 g to remove the Ficoll. RPMI-1640 Medium was added to the collected PBMC and the number of PBMC determined by counting. 1 ml of blood typically yields at least 1 million of PBMC.
PBMC were counted and cell densities adjusted. 100 μl of cells were added into the required number of wells such that the cell density for the IL-6 assay was 5,000/well. LD1-oxidized mannan conjugates for screening were serially diluted in DMSO. The LD1 solution was added to each well (final concentration of DMSO in assay was not more than 0.03%). The plates were incubated in a CO2 incubator at 37° C. and supernatants collected at 6 and 24 hours. At each time point of collection, the plates were centrifuged at 900 rpm for 4 minutes and the supernatents transferred to another 96 well plate. These were labelled and stored at −80° C. ELISA kits for IL-6 (Invitrogen) were used for quantitation of cytokine released. The ELISAs were performed as described in the manufacturer's instructions. The absorbances were measured by FlexStation 3. A standard curve for each cytokine was drawn each time for analyzing the data.
The Loxorubine (LOX) derivative, LD1, was synthesised and conjugated to oxidized mannan (LD1-OM) as described above. The LOX derivative, LD1, incorporates a hydrazide linkage for conjugation to aldehyde residues of oxidized mannan and an ester linkage between the linker and the LOX. LD1 oxidized mannan conjugates were used to stimulate PBMCs isolated from human donors and IL-6 cytokine release measured by ELISA.

[1] = system: MART-1-specific CD8 T cells; assay: Priming and recall of MART-1-specific T cell responses (intracellular IFNγ); format: cell-based, human; conditions: PBMC and MoDC from donors BC28 and BC29, 20 μg/ml
Protocol: MoDC at 2×10^5/ml (for 1:20 MoDC:T cell) in complete AB medium were added to a 24 well plate (1 ml per test condition) followed by protein or >1000 kDa oxidized mannan conjugate (10-20 μg/ml). Four hours later, 4×10^6 CD14 depleted PBMC were added to the wells in 1 ml complete AB medium. After 3 days, 25 U/ml IL-2, 10 ng/ml IL-7 and 10 ng/ml IL-15 was added. The T cells were re-stimulated 7-10 days later with 1×10^5 MoDC loaded with antigen. Twenty four hours following re-stimulation, cultures were supplemented with 25 U/ml IL-2 and again 3-4 days after. T cell cultures were typically analysed after 1 or 2 re-stimulations.
For T cell epitope peptides—Peptide loaded T2 cells (2×10^5/well) were prepared by pulsing with an irrelevant peptide (e.g., CAP-1 10 μg/ml or no peptide) and one with the peptide of interest ([…]) for 1 hour in serum free medium with 1.25 μg/ml β2-microglobulin. T2 cells were added at about a 1:5 ratio (4×10^4/well) in 100 μl to the duplicate T cell wells and incubate for 1 hour at 37° C. 5% CO2. […]
PBMC and MoDC from 2 donors (BC28 and BC29) were used for priming with MART-1 and >1000 kDa oxidized mannan conjugates (20 μg/ml) as described in Example 1. After 1 stimulation, analog and native MART-1 peptide-specific T cell responses were measured using pulsed T2 cells (FIG. 51). […]

Molecule | stimulation of IL-6 release by PBMC (in words) (PBMC; LOX at 500 μM) | Amount IL-6 (pg/ml), 6 hr (PBMC; 6 hr, LOX at 500 μM) | Amount IL-6 (pg/ml), 24 hr (PBMC; 24 hr, LOX at 500 μM) | EC50 (PBMC; 6 hr, read-out: EC50 of IL-6, 6 hr) | EC50 (PBMC; 24 hr, read-out: EC50 of IL-6, 24 hr) | MART-1-specific T cell responses after priming [1] | MART-1-specific T cell responses after priming ([1]; listed as MART-1 >1000 kDa oxidized mannan)
C=CCn1c(=O)n([C@@H]2O[C@H](CO)[C@@H](O)[C@H]2O)c2nc(N)[nH]c(=O)c21 [LOX, 7-allyl-7,8-dihydro-8-oxo-guanosine] | able to stimulate IL-6 release | failed to induce IL-6 | 10 pg/mL | > 500 µM | > 500 µM | – | –
C=CCn1c(=O)n([C@@H]2O[C@H](COC(=O)c3ccc(NN)nc3)[C@@H](O)[C@H]2O)c2nc(N)[nH]c(=O)c21 [LD1, ((2R,3S,4R,5R)-5-(7-allyl-2-amino-6,8-dioxo-1,6,7,8-tetrahydropurin-9-yl)-3,4-dihydroxy-tetrahydrofuran-2-yl)methyl 6-hydrazinylnicotinate] | did not stimulate IL-6 | – | – | – | – | – | –
B1 | – | – | – | – | – | efficiently responded to analog or native MART-1 peptides presented by T2 cells | more efficient in priming than unconjugated protein
